Consider one molecule from patent publication US12103916B2, “Antifungal compounds” (University of Kentucky Research Foundation, priority 2016, dated 2024).

As usually defined, the MIC is the smallest concentration in the dilution series that meets the test's criterion for growth inhibition.

Experiment [1] has as its system C. albicans ATCC MYA-2876(S). Briefly: MIC determination, strain C. Particulars: Candida albicans. It is filed as cell-based, Candida albicans. Here is the method:
(§1) The antifungal activity of our new azole compounds 1-9 and 24-41 was first evaluated against a panel of seven Candida albicans strains (A-G), three non-albicans Candida strains […], and three Aspergillus strains (K-M) in a concentration range of 0.03-31.2 μg/mL (Table 1). […] For all of our azole derivatives we report their MIC-0 values against C. albicans ATCC 10231 (strain A) and all Aspergillus strains (K-M), which correspond to complete growth inhibition of these fungi. […] The commercially available antifungals AmB, FLC, ITC, POS, and VOR were used as reference drugs for comparison. The MIC values presented for these five control drugs were either tested herein or correspond to our previously published data^5, 16 as indicated in Table 1.
(§2) Antifungal activity in the absence or presence of serum. The antifungal activity of the newly prepared alkylated piperazine/morpholine-azole hybrids 16-28, of intermediate 14 that we used to verify that only final compounds exert antifungal activity, as well as that of alkylated piperazine/morpholine derivatives 1-10 were first evaluated against a panel of seven C. albicans (ATCC 10231 (A), ATCC 64124(R) (B), ATCC MYA-2876(S) (C), ATCC 90819(R) (D), ATCC MYA-2310(S) (E), ATCC MYA-1237(R) (F), and ATCC MYA-1003(R) (G)), three non-albicans Candida (C. glabrata ATCC 2001 (H), C. krusei ATCC 6258 (I), and C. parapsilosis ATCC 22019 (J)), and three Aspergillus (A. flavus ATCC MYA-3631 (K), A. nidulans ATCC 38163 (L), and A. terreus ATCC MYA-3633 (M)) strains using a concentration range of 0.03-31.3 μg/mL (Table 2).
(§3) Commercially available antifungal agents such as AmB, CAS, FLC, and VOR were used as positive controls for comparison. […] It is important to note that all comparisons to follow will be done by using the MIC values reported in μg/mL as the data were collected that way. However, we also present in parentheses in Table 2 the corresponding values in micromolar.
(§4) We used the commercially available antifungal agents such as AmB, caspofungin (CAS), FLC, and VOR as positive controls for comparison. For derivatives 5-16 as well as the reference drugs AmB and CAS, we reported MIC-0 values, which correspond to no visible growth. […] In this manuscript, we performed all activity comparisons by using the MIC values reported in μg/mL (Note: the corresponding MIC values are also provided in μM into parentheses in Tables 1, 2, S1, and S2).

Experiment [2] has as its system C. albicans ATCC 90819(R). Briefly: MIC determination, strain D. Particulars: Candida albicans, ATCC90819. The format is cell-based, Candida albicans. Here is the method:
as §1, §2, §3, §4

The test system of experiment [3] is C. albicans ATCC MYA-2310(S). The experiment is described as follows: MIC determination, strain E. It is filed as cell-based, Candida albicans. To be noted: Candida albicans. The method, then: as §1, §2, §3, §4
Experiment [4] concerns Candida glabrata ATCC 2001. Briefly: MIC determination, strain H. The format is cell-based. To be noted: Nakaseomyces glabratus, ATCC2001. The method, then: as §1, §2, §3, §4
Experiment [5] concerns Candida krusei ATCC 6258. The experiment is described as follows: MIC determination, strain I. It is filed as cell-based. Particulars: Pichia kudriavzevii, ATCC6258. The method, then:
as §1, §2, §3, §4

Experiment [6] deals with C. albicans ATCC 64124 (strain B) biofilms. Briefly: Antibiofilm activity by XTT reduction assay. Particulars: Table 4, Ex.2. The format is cell-based, Candida albicans. The method, then:
Antibiofilm activity of synthetic compounds. Biofilms are complex functional communities of one or more species of microorganisms that are encased in extracellular polymeric substances and attached to both a solid surface and to each other. Being complex matrices, antifungal agents have difficulty reaching the pathogens embedded in these difficult-to-treat networks. The antibiofilm activity of compounds 7, 9, 20, 22, 25, and 26, as well as that of VOR were evaluated against biofilms of C. albicans ATCC 64124 (strain B) by XTT reduction assay (Table 4).
(Tetrazolium assays rely on reduction of a dye to a coloured formazan, in cell work by metabolically active cells.)

Experiment [7] concerns C. glabrata ATCC 2001 (strain H). Briefly: Time-kill assay, strain H. It is filed as cell-based, Candida glabrata. Particulars: Ex.2 series, compound at 4×MIC, VOR control. Here is the method: FIG. 9A-9D include Representative time-kill curves for compound 20 against FIG. 9A. C. albicans ATCC 10231 (strain A) and FIG. 9B. C. parapsilosis ATCC 22019 (strain J), as well as for compound 22 against FIG. 9C. C. glabrata ATCC 2001 (strain H), and FIG. 9D. strain J. Fungal strains were treated with no drug (black circles), 1×MIC (white circles), 4×MIC (inverted black triangles), or 8×MIC (white triangles) of compounds 20 or 22, or with 1×MIC (black squares) or 4×MIC (white squares) of VOR. The detection limit of this assay was 100 CFU/mL (represented by the red line in panels A and C).
Time-kill assays. To determine if the antifungal activity of the alkylated piperazine-azole hybrids is fungistatic or fungicidal, we performed time-kill assays over 24-hour periods by using compounds 20 and 22, each against two fungal strains (strains A and J for 20; H and J for 22) (FIG. 9).

Experiment [8] has as its system Candida albicans ATCC 10231. Particulars: Table 1; strain A; control azoles FLC, ITC, POS, VOR; previously reported (refs 5, 16); cited from earlier work.
Experiment [9] relates to C. albicans ATCC MYA-2876(S). Particulars: Table 1; strain C; control azoles; previously reported (refs 5, 16); cited from earlier work.
The test system of experiment [10] is C. albicans ATCC 90819(R). To be noted: Table 1; strain D; control azoles; previously reported (refs 5, 16); cited from earlier work.
The subject of experiment [11] is C. albicans ATCC MYA-2310(S). To be noted: Table 1; strain E; control azoles; previously reported (refs 5, 16); cited from earlier work.
For experiment [12], the system named is Candida glabrata ATCC 2001. Particulars: Table 1; strain H; control azoles; previously reported (refs 5, 16); cited from earlier work.
Experiment [13] relates to Candida krusei ATCC 6258. To be noted: Table 1; strain I; control azoles; previously reported (refs 5, 16); cited from earlier work.
The mark [14] stands for this setting: read-out: MIC (MIC-2), in parentheses.

The structures appear in SMILES notation. Where two headings read alike, the source gives them in different places. Marks after values point to notes of the source that are not given here.

For `C[C@@H](c1ncncc1F)[C@](O)(Cn1cncn1)c1ccc(F)cc1F` [VOR, voriconazole], the MIC in experiment [1] (read-out: MIC (MIC-2)) amounted to 1.95 µg/mL; in experiment [1] (setting [14]), 5.6 µM; in experiment [2] (read-out: MIC (MIC-2)), 1.95 µg/mL; in experiment [2] (setting [14]) it was 5.6 µM; in [3] (read-out: MIC (MIC-2)), 0.975 µg/mL; in [3] (setting [14]), 2.8 µM. For the same molecule, the minimal inhibitory concentration (MIC) came out at 0.06 µg/mL in experiment [4] (read-out: MIC (MIC-2)), 0.17 µM in experiment [4] (setting [14]), 0.12 µg/mL in the experiment on Candida krusei ATCC 6258 [5] (read-out: MIC (MIC-2)) and 0.34 µM with Candida krusei ATCC 6258 [5] (setting [14]). This molecule also gave an SMIC50 in experiment [6] (reduces metabolic activity of biofilms by 50%) of 62.5 µg/mL. The molecule further yielded an SMIC80 in experiment [6] (reduces metabolic activity of biofilms by 80%) of 62.5 µg/mL. For the same molecule, in experiment [7], the “effect in time-kill assay” value is given as “fungistatic”. The “MIC (MIC-2)” value was 0.24^c μg/mL in [8]; 1.95^c μg/mL in experiment [9]; 1.95^c μg/mL in experiment [10]; 0.975^c μg/mL in experiment [11]; 0.06^c μg/mL in experiment [12]; 0.12^c μg/mL in the experiment with Candida krusei ATCC 6258 [13].
